# Source: publication PMC2989405 (Cell, 2009)
# What was measured:
# [1] = target: T1, MrgprA3 (Mus musculus, UniProt Q91WW3); test: calcium imaging; type: cell-based; details: agonist; dose-response in figure
# T1 sequence (Q91WW3 1-302): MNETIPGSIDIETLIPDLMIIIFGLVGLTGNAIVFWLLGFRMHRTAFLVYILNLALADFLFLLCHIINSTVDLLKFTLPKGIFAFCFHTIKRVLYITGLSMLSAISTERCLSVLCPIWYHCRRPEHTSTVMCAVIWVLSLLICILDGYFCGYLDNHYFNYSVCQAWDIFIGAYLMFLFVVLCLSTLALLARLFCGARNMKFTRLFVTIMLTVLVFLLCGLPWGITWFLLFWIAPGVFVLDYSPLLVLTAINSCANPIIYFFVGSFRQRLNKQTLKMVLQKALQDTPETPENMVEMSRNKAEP
# [2] = target: T2, rat MrgprA (Rattus norvegicus, UniProt Q7TN49); test: response of electroporated Mrgpr-deficient mouse DRG neurons; type: cell-based; details: agonist
# T2 sequence (Q7TN49 1-304): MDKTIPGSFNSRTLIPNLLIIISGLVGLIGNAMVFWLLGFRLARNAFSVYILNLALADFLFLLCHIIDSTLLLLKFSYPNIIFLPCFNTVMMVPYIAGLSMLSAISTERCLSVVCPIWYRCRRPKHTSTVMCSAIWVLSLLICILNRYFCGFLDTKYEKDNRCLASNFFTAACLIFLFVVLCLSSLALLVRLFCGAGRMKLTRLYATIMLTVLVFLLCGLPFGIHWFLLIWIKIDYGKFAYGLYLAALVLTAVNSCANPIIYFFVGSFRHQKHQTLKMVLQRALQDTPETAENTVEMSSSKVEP
Compound,calcium imaging (fura-2) in transfected HEK293 cells [1],response of electroporated Mrgpr-deficient mouse DRG neurons [2]
C=C[C@H]1CN2CC[C@H]1C[C@H]2[C@H](O)c1ccnc2ccc(OC)cc12 [quinine],"Unlike CQ, quinine weakly activates MrgprA3",–
CCN(CC)CCCC(C)Nc1ccnc2cc(Cl)ccc12 (centres unmarked) [chloroquine],–,Expression of rat MrgprA in Mrgpr-clusterΔ^−/− DRG neurons conferred CQ sensitivity upon them
